The results in this text go back to PubChem BioAssay (NCI).

What is called GI50 is the concentration at which growth is held to half of that of the control. What is called TGI is the concentration at which net growth stops.

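Five concentrations, 48 hours, 96-well plates. GI50 marks 50% less growth. TGI: total growth inhibition.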 Where only a bound is given, the exact number is not on record here.

Among the test systems are SF-295 CNS; HCT-15 colon; OVCAR-5 ovarian; LOX IMVI melanoma; HCC-2998 colon; SNB-75 CNS; SK-OV-3 ovarian; DU-145 prostate; A498 renal; SR leukemia.
Common to all, as to assay: DTP human tumour cell line panel, 48 h

On to `COc1cc2c(cc1OC)C(=O)/C(=C/c1cccc(OCC(=O)c3ccccc3)c1)C2`, for which the GI50 in the test on SF-295 CNS was 5.06 µM; with HCT-15 colon it was 9.3 µM; in the test on OVCAR-5 ovarian, 73.9 µM; with LOX IMVI melanoma it was 18.3 µM; with HCC-2998 colon, 73.1 µM; in the test with SNB-75 CNS it was 12 µM. The GI50 with SK-OV-3 ovarian is 99.2 µM; with DU-145 prostate, 11.3 µM; with A498 renal, 21.7 µM. The TGI was 40.8 µM in the test with SF-295 CNS; > 100 µM with HCT-15 colon; > 100 µM in the test with OVCAR-5 ovarian; > 100 µM with LOX IMVI melanoma; > 100 µM in the test on HCC-2998 colon; 37.8 µM in the test on SNB-75 CNS. Also, the TGI with SK-OV-3 ovarian, with DU-145 prostate and in the test with A498 renal was > 100 µM each time.

As to `Cc1ccc(-[n+]2c3cc(N)c(C)cc3nc3cc(C)c(Nc4ccccc4)cc32)cc1`, the GI50 in the test with SF-295 CNS was 0.0646 µM; in the test on OVCAR-5 ovarian it was 0.357 µM; in the test with HCC-2998 colon it was 0.566 µM; in the test with SNB-75 CNS, 0.154 µM; in the test on SK-OV-3 ovarian it was 0.258 µM; in the test on DU-145 prostate, 0.0534 µM. In the test on A498 renal, the GI50 was 0.119 µM. The TGI was found to be 0.181 µM with SF-295 CNS; 1.48 µM in the test with OVCAR-5 ovarian; 1.82 µM in the test with HCC-2998 colon; 0.419 µM in the test with SNB-75 CNS; 1.62 µM in the test with SK-OV-3 ovarian; 1.08 µM in the test with DU-145 prostate. In the test on A498 renal, this compound registered a concentration for total growth inhibition (TGI) of 0.438 µM.

Regarding `COc1ccc(-c2nc3sc(C)cn3c2/C=C/C(=O)c2cc(OC)c(OC)c(OC)c2)cc1`, the GI50 was 4.42 µM in the test with SF-295 CNS; 3.35 µM in the test with HCT-15 colon; > 100 µM with OVCAR-5 ovarian; 3.51 µM in the test on LOX IMVI melanoma; 3.71 µM in the test with HCC-2998 colon; 4.09 µM in the test with SNB-75 CNS. Further, the GI50 in the test on SK-OV-3 ovarian is 4.19 µM; in the test with DU-145 prostate, 3.69 µM. Further, the TGI in the test with SF-295 CNS was > 100 µM; with HCT-15 colon it was > 100 µM; in the test with OVCAR-5 ovarian it was > 100 µM; with LOX IMVI melanoma it was > 100 µM; in the test on HCC-2998 colon, 7.66 µM; in the test on SNB-75 CNS, > 100 µM. Moreover, the total growth inhibition concentration (TGI) in the test with SK-OV-3 ovarian and in the test with DU-145 prostate was > 100 µM in each case.

As for `C=C1C(=O)O[C@H]2[C@H]1CC/C(Cn1cc(CNC(=O)Cc3cn(C(=O)c4ccc(Cl)cc4)c4ccc(OC)cc34)nn1)=C\CC[C@@]1(C)O[C@@H]21`, the GI50 was 5.78 µM with SF-295 CNS; 2.77 µM in the test with HCT-15 colon; 1.66 µM with OVCAR-5 ovarian; 1.54 µM in the test with SNB-75 CNS; 16.1 µM in the test on SK-OV-3 ovarian; 1.75 µM in the test with DU-145 prostate. Also, the GI50 with A498 renal is 2.51 µM. Besides, the total growth inhibition concentration (TGI) with SF-295 CNS was found to be 25.7 µM; with HCT-15 colon it was 10.7 µM; in the test with OVCAR-5 ovarian it was 3.34 µM; with SNB-75 CNS it was 4.02 µM; with SK-OV-3 ovarian it was 32.9 µM; in the test with DU-145 prostate, 3.35 µM. The TGI in the test on A498 renal is 8.24 µM.

For the compound `O=C(NNc1nc(Cl)nc(N2CCN(C(c3ccccc3)c3ccccc3)CC2)n1)c1ccccc1`, the GI50 in the test on SF-295 CNS is 10.8 µM; in the test on HCT-15 colon, 1.62 µM; with OVCAR-5 ovarian, 12.7 µM; in the test on LOX IMVI melanoma, 1.54 µM; in the test on HCC-2998 colon it was 1.63 µM; in the test with SNB-75 CNS, 1.43 µM. Further, the GI50 is 2.47 µM with SK-OV-3 ovarian, 2.15 µM with DU-145 prostate and 3.55 µM in the test on A498 renal. The TGI was 23.1 µM in the test with SF-295 CNS; 3.42 µM in the test on HCT-15 colon; 40.7 µM with OVCAR-5 ovarian; 2.94 µM in the test with LOX IMVI melanoma; 3.16 µM in the test on HCC-2998 colon; 2.75 µM in the test with SNB-75 CNS. Also, the TGI is 6.94 µM with SK-OV-3 ovarian, 4.53 µM with DU-145 prostate and 18.8 µM in the test on A498 renal.

Take `CC(=O)n1c(COS(C)(=O)=O)nc2ccccc21`: the TGI in the test on SF-295 CNS, in the test on HCT-15 colon, in the test with OVCAR-5 ovarian, in the test with LOX IMVI melanoma, in the test on HCC-2998 colon and with SNB-75 CNS was > 100 µM each time. Besides, the TGI in the test with DU-145 prostate and with A498 renal was > 100 µM throughout.

`CC1OC(OCC2OC(Oc3c(-c4ccc(O)cc4)oc4cc(O)cc(O)c4c3=O)C(OC3OCC(O)(CO)C3O)C(O)C2O)C(O)C(O)C1O` (stereo unspecified): the TGI with SF-295 CNS was > 100 µM; in the test with HCT-15 colon, 53.2 µM; in the test on OVCAR-5 ovarian it was > 100 µM; with LOX IMVI melanoma it was > 100 µM; with HCC-2998 colon it was > 100 µM; in the test with SNB-75 CNS, > 100 µM. In addition, the TGI with SK-OV-3 ovarian, in the test on A498 renal and in the test on SR leukemia was > 100 µM throughout.

With `N#CCC(=O)Nc1cccc(C(F)(F)F)c1`, the TGI with SF-295 CNS, in the test on HCT-15 colon, in the test on OVCAR-5 ovarian, with LOX IMVI melanoma, in the test on HCC-2998 colon and with SNB-75 CNS was > 100 µM each time. Moreover, the total growth inhibition concentration (TGI) in the test with SK-OV-3 ovarian, in the test with A498 renal and with SR leukemia was > 100 µM in each case.
